Measured values taken from patent US7855290B2, “Pyridine derivatives and pyrimidine derivatives (3)” (Eisai R&D Management Co., Ltd., priority 2005, dated 2010).

Assays:
[1] = target: T1, His6-HGFR (HGFR cytoplasmic domain) (Homo sapiens, UniProt P08581); test: Inhibitory activity against HGFR tyrosine kinase activity (HTRF); assay type: biochemical; details: biotin-poly(GT), ATP, 30° C. 10 min
T1 construct: made in house; host or cells: Sf9 insect cells (Spodoptera frugiperda), baculovirus, pFastBac-HT vector
From the text: The cytoplasmic domain of HGFR (Genbank Accession No. J02958) is a 1.3 kb DNA fragment beginning with Lys974 and including a stop codon, and described by Park et al. (Proc. Natl. Acad. Sci. U.S.A. 84(18), 6379-6383, 1987). The DNA fragment was isolated from the human placental cDNA library (purchased from Clontech) by PCR (TaKaRa Ex Taq™ Kit, purchased from TaKaRa) using two kinds of primers (SEQ ID NO: 1,5′-[…]-3′ and SEQ ID NO: 2,5′-[…]-3′, purchased from Invitrogen). The DNA fragment was cloned into a baculovirus transplace vector (pFastBac™-HT (purchased from GIBCO BRL)) to produce a recombinant construct. […] EGFR was purchased from Sigma (Production No. E-2645).
To the suspension of Sf9 cells (3×10^8 cells) in SF-900II medium (purchased from Invitrogen) containing 2% FBS was added a solution of HGFR transfected baculovirus above (4 ml), followed by a shaking culture at 27° C. for 48 hrs. The cells infected with the HGFR transfected baculovirus were centrifuged at 1,000 rpm, 4° C. for 5 min to remove the supernatant. The precipitated infected cells were suspended in 80 ml of ice-cold PBS, and centrifuged at 1,000 rpm, 4° C. for 5 min to remove the supernatant. The precipitated infected cells were suspended in 40 ml of ice-cold Lysis Buffer (50 mM Tris-HCl (pH 8.5), 5 mM 2-mercaptoethanol, 100 mM KCl, 1 mM PMSF and 1% (v/v) NP-40). The suspension was centrifuged at 12,000 rpm, 4° C. for 30 min to provide a supernatant.
The supernatant was loaded onto an Ni-NTA agarose column (3 ml, purchased from Qiagen) equilibrated with 30 ml of Buffer A (20 mM Tris-HCl (pH 8.5), 5 mM 2-mercaptoethanol, 500 mM KCl, 20 mM imidazole and 10% (v/v) glycerol). The column was washed with 30 ml of Buffer A, 6 ml of Buffer B (20 mM Tris-HCl (pH 8.5), 5 mM 2-mercaptoethanol, 1 M KCl, and 10% (v/v) glycerol) and 6 ml of Buffer A in this order. Then, the column was eluted with 6 ml of Buffer C (20 mM Tris-HCl (pH 8.5), 5 mM 2-mercaptoethanol, 100 mM KCl, 100 mM imidazole, and 10% (v/v) glycerol) to provide a fraction. The fraction was entrapped in a dialysis membrane (purchased from Spectrum Laboratories), dialyzed at 4° C. overnight with 1 L of dialysis buffer (20 mM Tris-HCl (pH 7.5), 10% (v/v) glycerol, 1 mM dithiothreitol, 0.1 mM Na3VO4 and 0.1 mM EGTA), and stored at −80° C. until used. […] The VEGFR2 cytoplasmic domain, the FGFR1 cytoplasmic domain, and the PDGFRβ cytoplasmic domain were fused with six histidine at the N terminus by the similar method to produce respective recombinant proteins (His6-VEGFR2, His6-FGFR1, and His6-PDGFRβ).
To each well of a 96-well round plate (purchased from NUNC, Production No. 163320) were added 10 μl of a solution for kinase reaction (200 mM Hepes (pH 7.4), 80 mM MgCl2, 16 mM MnCl2 and 2 mM Na3VO4), 250 ng of biotinylated poly(Glu4: Tyr1) (biotin-poly(GT), purchased from Japan Schering) (6 μl, 15-fold diluted with distilled water), 30 ng of His6-HGFR (10 μl, 60-fold diluted with 0.4% BSA) and a test substance dissolved in dimethylsulfoxide (4 μl, 100-fold diluted with 0.1% BSA) to mess up to 30 μl. To the well was added 10 μl of 4 μM ATP (purchased from Sigma) diluted with distilled water to incubate at 30° C. for 10 min, followed by adding 10 μl of 500 mM EDTA (pH 8.0) (purchased from Wako Pure Chemicals) to provide a kinase reaction solution.
The tyrosine-phosphorylated biotin-poly(GT) was detected using the Homogenous Time-Resolved Fluorescence (HTRF) method (Analytical Biochemistry, 269, 94-104, 1999).

[2] = target: T2, HGFR (Homo sapiens, UniProt P08581); test: Inhibitory activity against the HGFR autophosphorylation using ELISA (MKN-45 cells); assay type: cell-based; details: 1 hr with test substance
T2 construct: endogenous in cells; host or cells: MKN-45 human gastric cancer cells
Experimental: Human gastric cancer cells (MKN-45) were suspended in a 1% FBS-containing RPMI1640 medium (purchased from Sigma). The cell suspension (1×10^5 cells/ml) was put in a 96-well plate for cell culture (purchased from NUNC, Production No. 167008) at 0.1 ml/well, and then cultured in a 5% CO2 incubator (37° C.) overnight. After the culture, from each well was removed the supernatant, followed by adding 0.05 ml of a 1% FBS-containing RPMI1640 medium. Then, the well was supplied with 0.05 ml of the test substance dissolved in dimethyl sulfoxide (diluted with a 1% FBS-containing RPMI1640 medium), followed by culturing in a 5% CO2 incubator (37° C.) for 1 hr. From each well was removed the supernatant, and each well was washed with 150 μl of PBS, followed by adding 100 μl of a lysis buffer (50 mM Hepes (pH 7.4), 150 mM NaCl, 10% (v/v) glycerol, 1% Triton X-100, 1.5 mM MgCl2, 1 mM EDTA (pH 8.0), 100 mM NaF, 1 mM PMSF, 10 μg/ml Aprotinin, 50 μg/ml Leupeptin, 1 μg/ml Pepstatin A and 1 mM Na3VO4). The plate was shaken at 4° C. for 1 hr to prepare the cell extract.
To a 96-well plate for ELISA (purchased from COSTAR, Production No. 3369) was added 50 μl of 60 mM bicarbonate buffer (pH 9.6) containing 50 μg/ml of an anti-phosphotyrosine antibody (PY20, purchased from Transduction Laboratory, Production No. P-11120). The plate was incubated at 4° C. overnight.
Each well of the plate prepared in 2. was washed three times with 200 μl of PBS, and supplied with 150 μl of 3% BSA/PBS, followed by incubating at room temperature for 2 hrs. Each well was washed three times with 200 μl of PBS, and supplied with 50 μl of the above cell extract, followed by incubating at 4° C. overnight. After the incubation, each well was washed three times with 250 μl of a washing solution (0.1% BSA, 20 mM Tris-HCl (pH 7.6), 137 mM NaCl, and 0.05% Tween-20), and supplied with 70 μl of anti-HGFR antibody (h-Met(C-12), purchased from Santa Cruz, Production No. sc-10) 2,000-fold diluted with a reaction solution (1% BSA, 20 mM Tris-HCl (pH 7.6), 137 mM NaCl and 0.05% Tween-20), followed by incubating at room temperature for 1 hr. The well was washed three times with 250 μl of the washing solution, and supplied with 70 μl of peroxidase-labelled anti-rabbit IgG antibody (purchased from Cell Signaling, Production No. 7074) 2,000-fold diluted with the reaction solution, followed by incubating at room temperature for 1 hr. Each well was washed three times with 250 μl of the washing solution, and supplied with 70 μl of TMB Membrane Peroxidase Substrate (purchased from Funakoshi, Production No. 50-5077-03), followed by incubating at room temperature for 10 min. Each well was supplied with 70 μl of 1 M phosphoric acid, and using the Plate Reader MTP-500 (Corona Electric), the absorbance of the well was instantly determined at a measurement wavelength of 450 nm. While defining the absorbance of a well supplied with the cell extract having no test substance as 100% HGFR autophosphorylation activity, and the absorbance of a well supplied with 50 μl of the lysis buffer as 0% HGFR autophosphorylation activity, the HGFR autophosphorylation activity (%) was calculated for each well.

[3] = tested on: Human gastric cancer cells (MKN-45); test: Inhibitory activity against the proliferation of human gastric cancer cells (MKN-45); assay type: cell-based; details: 72 h, MKN-45, 1% FBS RPMI1640, 3 days, Cell Counting Kit-8
Experimental: Human gastric cancer cells (MKN-45) were suspended in a 1% FBS-containing RPMI1640 medium (purchased from Sigma). The cell suspension (1×10^4 cells/ml) was added in a 96-well plate for cell culture (purchased from NUNC, Production No. 167008) at 0.1 ml/well, and then cultured in a 5% CO2 incubator (37° C.) overnight. After the culture, each well was supplied with 0.1 ml of a test substance diluted with a 1% FBS-containing RPMI1640 medium, followed by culturing in a 5% CO2 incubator (37° C.) for 3 days. After the culture, each well was supplied with 10 μl of Cell Counting Kit-8 (purchased from DOJINDO, Production No. 343-07623), followed by incubation in a 5% CO2 incubator (37° C.) for about 1.5 hrs. After the incubation, using the Plate Reader MTP-500 (Corona Electric), the absorbance of each well was determined at a measurement wavelength of 450 nm and a reference wavelength of 660 nm.

T2 sequence (P08581 25-1390): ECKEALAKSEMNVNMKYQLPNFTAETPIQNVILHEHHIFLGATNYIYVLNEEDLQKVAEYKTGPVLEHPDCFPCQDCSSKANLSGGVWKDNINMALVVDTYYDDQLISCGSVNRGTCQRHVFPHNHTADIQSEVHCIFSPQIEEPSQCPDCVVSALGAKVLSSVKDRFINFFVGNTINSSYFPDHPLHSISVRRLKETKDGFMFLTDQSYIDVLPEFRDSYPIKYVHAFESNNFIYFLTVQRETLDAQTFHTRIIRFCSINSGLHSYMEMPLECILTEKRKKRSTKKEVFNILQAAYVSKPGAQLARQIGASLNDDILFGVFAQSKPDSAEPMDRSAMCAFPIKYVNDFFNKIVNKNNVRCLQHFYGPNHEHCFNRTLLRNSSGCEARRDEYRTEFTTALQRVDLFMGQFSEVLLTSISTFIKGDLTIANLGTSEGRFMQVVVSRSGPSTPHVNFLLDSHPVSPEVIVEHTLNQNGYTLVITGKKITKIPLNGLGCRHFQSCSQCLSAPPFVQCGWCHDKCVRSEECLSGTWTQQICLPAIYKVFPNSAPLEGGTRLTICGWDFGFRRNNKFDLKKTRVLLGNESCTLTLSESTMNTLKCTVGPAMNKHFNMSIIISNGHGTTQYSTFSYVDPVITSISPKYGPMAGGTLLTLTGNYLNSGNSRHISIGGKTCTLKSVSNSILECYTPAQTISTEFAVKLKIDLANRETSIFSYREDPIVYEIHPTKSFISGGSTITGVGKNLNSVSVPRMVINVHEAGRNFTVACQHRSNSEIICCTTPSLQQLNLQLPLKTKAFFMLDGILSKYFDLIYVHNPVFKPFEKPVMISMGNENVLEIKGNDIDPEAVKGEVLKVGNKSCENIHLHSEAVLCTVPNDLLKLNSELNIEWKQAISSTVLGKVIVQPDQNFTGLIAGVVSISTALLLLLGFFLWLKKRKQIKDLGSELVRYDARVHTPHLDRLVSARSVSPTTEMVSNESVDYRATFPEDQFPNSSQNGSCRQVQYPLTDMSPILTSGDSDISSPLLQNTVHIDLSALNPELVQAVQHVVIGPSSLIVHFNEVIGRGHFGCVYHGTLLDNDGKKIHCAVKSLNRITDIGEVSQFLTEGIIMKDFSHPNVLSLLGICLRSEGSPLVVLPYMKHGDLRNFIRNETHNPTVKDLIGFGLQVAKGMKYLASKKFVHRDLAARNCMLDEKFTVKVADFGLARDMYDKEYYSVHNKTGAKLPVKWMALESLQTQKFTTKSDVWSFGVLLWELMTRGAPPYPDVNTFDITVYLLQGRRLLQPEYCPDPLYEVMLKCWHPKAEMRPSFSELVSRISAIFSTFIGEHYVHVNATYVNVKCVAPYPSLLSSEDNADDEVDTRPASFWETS
T1 sequence (P08581 956-1390 limits assumed): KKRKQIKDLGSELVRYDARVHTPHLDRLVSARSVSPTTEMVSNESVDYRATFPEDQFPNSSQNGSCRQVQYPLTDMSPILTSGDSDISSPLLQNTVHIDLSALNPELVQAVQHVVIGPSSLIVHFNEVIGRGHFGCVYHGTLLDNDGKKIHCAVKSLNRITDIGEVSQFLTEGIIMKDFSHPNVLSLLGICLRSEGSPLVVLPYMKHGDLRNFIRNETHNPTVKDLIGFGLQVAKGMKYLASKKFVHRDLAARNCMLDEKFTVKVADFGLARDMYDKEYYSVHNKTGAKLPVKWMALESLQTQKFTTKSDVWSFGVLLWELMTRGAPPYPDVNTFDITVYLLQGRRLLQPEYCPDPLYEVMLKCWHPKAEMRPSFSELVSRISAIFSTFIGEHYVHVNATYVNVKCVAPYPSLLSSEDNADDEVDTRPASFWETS

Compound	IC50 [1] [nM]	IC50 [2] [nM]	IC50 [3] [nM]
CN(C)CC1CCN(C(=O)Nc2cc(Oc3ccc(NC(=O)C4(C(=O)Nc5ccc(F)cc5)CCC4)cc3F)ccn2)CC1 [Example 6, N-[4-({2-[({4-[(Dimethylamino)methyl]piperidin-1-yl}carbonyl)amino]pyridin-4-yl}oxy)-3-fluorophenyl]-N′-(4-fluorophenyl)cyclobutane-1,1-dicarboxamide]	640		
CN1CCC(N(C)C(=O)Nc2cc(Oc3ccc(NC(=O)C4(C(=O)NC5CCCC5)CC4)c(F)c3)ccn2)CC1 [Example 52, N-Cyclopentyl-N′-(2-fluoro-4-{[2-({[methyl(1-methylpiperidin-4-yl)amino]carbonyl}amino)pyridin-4-yl]oxy}phenyl)cyclopropane-1,1-dicarboxamide]	160	170	
CN1CCC(N(C)C(=O)Nc2cc(Oc3ccc(NC(=O)C4(C(=O)NCC(C)(C)C)CC4)c(F)c3)ccn2)CC1 [Example 53, N-(2,2-Dimethylpropyl)-N′-(2-fluoro-4-{[2-({[methyl(1-methylpiperidin-4-yl)amino]carbonyl}amino)pyridin-4-yl]oxy}phenyl)cyclopropane-1,1-dicarboxamide]	270	370	
O=C(Nc1cc(Oc2cc(F)c(NC(=O)C3(C(=O)Nc4ccc(F)cc4)CC3)cc2F)ccn1)N1CC(O)C1 [Example 91, N-[2,5-Difluoro-4-[(2-{[(3-hydroxyazetidin-1-yl)carbonyl]amino}pyridin-4-yl)oxy]phenyl}1-N′-(4-fluorophenyl)cyclopropane-1,1-dicarboxamide]			5
CN1CCC(N(C)C(=O)Nc2cc(Oc3cc(F)c(NC(=O)C4(C(=O)Nc5ccc(F)cc5)CC4)cc3F)ccn2)CC1 [Example 94]			4.9

Continued, values first:

IC50 [1] [nM]	IC50 [2] [nM]	IC50 [3] [nM]	Compound
180	260		CN1CCC(N(C)C(=O)Nc2cc(Oc3ccc(NC(=O)C4(C(=O)NCc5ccccc5)CC4)c(F)c3)ccn2)CC1 [Example 49, N-Benzyl-N′-(2-fluoro-4-{[2-({[methyl(1-methylpiperidin-4-yl)amino]carbonyl}amino)pyridin-4-yl]oxy}phenyl)cyclopropane-1,1-dicarboxamide]
250	380		CN1CCC(N(C)C(=O)Nc2cc(Oc3ccc(NC(=O)C4(C(=O)Nc5cccnc5)CC4)c(F)c3)ccn2)CC1 [Example 51, N-(2-Fluoro-4-{[2-({[methyl(1-methylpiperidin-4-yl)amino]carbonyl}amino)pyridin-4-yl]oxy}phenyl)-N′-pyridin-3-ylcyclopropane-1,1-dicarboxamide]
